Experimental data published in US9388405B2, “Method for identifying a subpopulation of mammalian cells with distinctive ribosome translation profiles” (priority 2009, dated 2016).

Columns and labels:
Format in all cases: cell-based, human
HCT116 mTRdm-fLUC cells = test: 5-Assay / 15-Assay toxin assays, fLUC plate reader (Fold Induction)
Protocol: The 5-Assay and 15-Assay procedures were applied to cellular pools using either of two growth procedures (e.g. a Cell Count or Confluence growth assay). For a Cell Count assay, cells from the P1 pool dish were counted and passed into a white clear bottom 96-well microtiter tray at a density of 25,000 cells per well; the leftover cells were passed into a passage 2 (P2) dish. Cells in the microtiter plate were allowed to grow for about 40 hr to achieve a ˜75% cell confluence prior to incubation with a toxic agent. Then cells in a microtiter plate were treated with complete growth medium containing either no toxin or an optimal toxin, defined as a single or multiple toxin assay that produces a maximal translational response (taken from Table 3) and incubated for 6 hours at 37° C. Each treatment was performed on triplicate wells.
After toxin incubation, cells were examined by phase contrast microscopy for signs of detachment. If more than ˜10% of cells were detached, the 96-well plates were centrifuged at 1200 rpm for 3 min to pellet the detached cells. The media were removed and replaced with 50 μL of Cell Lysis Buffer (25 mM Tris-phosphate (pH7.8), 10% glycerol, 1% Triton X-100, 1 mg/ml BSA, 2 mM EGTA and 2 mM DTT). Cells were incubated with the Cell Lysis Buffer for 10 min at RT and cell lysis was verified using a phase contrast microscope. To ensure complete lysis, the lysates were vigorously agitated using the multichannel pipettor. Any air bubbles formed as a result of agitation were manually removed with a syringe needle. Luminescence was measured using the FLUOstar Optima (BMG Labtech) microplate reader. To develop luminescence, wells were injected with 5 μL of the D-luciferin solution dissolved in Reaction Buffer (25 mM Glycylglycine (pH 7.8), 15 mM MgSO4, 4 mM EDTA, 15 mM Potassium phosphate, 1 mM DTT, 1 mM Coenzyme A, 6.7 mM ATP and 3.35 mM D-luciferin). After 4 sec with shaking, luminescence values were measured using the lens filter at gains of 2500-4000.
Light values were converted to Fold Induction using the ratio of values produced by treated and untreated cells. The maximal TR-specific translational response produced by the 5-Toxin or 15-Toxin assay was used to assign an optimal toxin assay (maximal translational response) which was subsequently used to screen subclones derived from this pool and to assign a Class designation. […]
In one test, the 5-Assay procedure (Table 3) was applied to HCT116 mTRdm-fLUC 12-16 subclone #30 cells (FIG. 1A). […] Samples were then processed with Lysis buffer and read in a plate reader. […]
Triplicate samples of HCT116 mTRdm-fLUC 12-16 Sub#30 cells were cultured with the two-Toxin assays using a standard plate reader protocol (FIG. 1C). […]

[1] = system: MCF7 CMV-fLuc subclones #44 and #48; test: PKC activator dose response, cap-dependent translation (fLuc); settings: single-Toxin, 6 hr
Protocol: Following 6 hr exposure to the Single-Toxin TPA assay, cells were lysed and fLuc protein activity measured using a standard microplate reader assay. The raw values were averaged and expressed as the ratio of treated to untreated samples (Fold Induction).
Dashed lines represent translational response levels produced by a 100 nM TPA Single-Toxin assay. The Bryostatin 1 concentrations (top panel) encompassed the TPA concentrations used in FIG. 27A. […] The Bryostatin 2 dose response curve (bottom panel) employed higher drug concentrations (the maximal tested dose was 5× the largest TPA and Bryostatin 1 amounts). At the highest tested dose (2.5 uM), Bryostatin 2 produced fLuc activity consistent with the level observed with 100 nM TPA.
In addition to measuring cap-dependent and cap-independent translational effects, Class-specific translational activity and toxin-defined actions, the previously described materials and methods allow for a variety of applications designed to detect and characterize agents and processes that regulate ribosome activity. In this example, comparative dose response assays were used to detect cap-dependent and cap-independent translational regulation in MCF7 cells. The basis for this application was the observation that distinct translational responses are produced by compounds at different doses. When an assortment of compounds act on a common molecular target, they can be grouped into a genus of related drugs. By comparing individual species of a compound genus over a defined dose range, differences in translational regulation can be defined. Furthermore, these translational differences can often be linked to biological differences.
In this example (FIG. 27), the three PKC activators produced similar dose response trends in cap-dependent assays. […] However, macrolide lactones produced translational increases that were generally 60-70% of the TPA translational response (FIG. 27B). In fact, a 25 fold increase in Bryostatin 2 concentration (2.5 uM) was needed to produce a translational magnitude similar to the 100 nM TPA assay (FIG. 27B).

[2] = system: MCF7 mTRdm-fLuc subclones #8, #27, and #45; test: PKC activator dose response, cap-independent TR translation (fLuc); settings: single-Toxin, 6 hr
Protocol: Following 6 hr culture with a TPA single-Toxin assay, cells were lysed and fLuc protein activity measured using a standard microplate reader assay. The plate reader values were averaged and expressed as the ratio of treated to untreated samples (Fold Induction).
As with FIG. 27B, dashed lines represent translational response levels achieved by the 100 nM TPA assay in each cell line. […] A further difference between the cap-dependent and cap-independent assays was the observation that increased Bryostatin 2 concentrations (5× the maximal TPA dose) never produced fLUC activity equivalent to the 100 nM TPA assay. Thus, the Toxin Assay procedure can detect a statistically significant difference in cap-dependent and cap-independent translation in compounds that activate PKC activity.
In the cap-independent assays, a similar dose response trend was observed over a 1 nM to 250 nM range with a translational peak at a 100 nM dose. However, the magnitude of the Bryostatin increases were generally 30% of 100 nM TPA response.

[3] = system: HEK293 CMV-fLuc subclone #3; test: Updated 15-Assay / 21-Assay, cap-dependent translational responses; settings: Updated 15-Assay two-Toxin with 100 nM TPA, cap-dependent
Source text: (§1) The dashed line represents the level of translational response in the untreated samples.
Following 6 hr exposure to the compounds, cells were lysed and fLuc protein activity measured using a standard microplate reader assay. The triplicate plate reader values were averaged and expressed as the ratio of treated to untreated samples (Fold Induction). The dashed line represents the level of translational response in the untreated samples.
(§2) The 21-Assay procedure employs the same standard toxins as the Updated 15-Assay protocol. The extra 6 assays involve an unknown or an uncharacterized compound and its pairwise combinations with the five toxins: Unknown, Unknown+TPA, Unknown+Colchcine, Unknown+Bortezomib (Velcade), Unknown+Low dose Calon, and Unknown+Hycamtin (Topotecan).
Application of single-Toxin and two-Toxin assays in the Updated 15-Assay protocol was used to define cap-dependent translational responses in the HEK293 CMV-fLuc #3 subclone (FIG. 30A).
The combinatorial process described in this example provides a system for testing translational regulation by unknown compounds. In this example, a 21-Assay setup is described that employs the single and pairwise combinatorial application of 5 toxins, as in a standard 15-Toxin assay, and the addition of a sixth substance. Inclusion of the sixth substance requires the expansion of the assay group to a total of 21 single- and two-Toxin assays. For this example, a control substance (taxol) was selected from the original 15-Assay system.

[4] = system: MCF7 CMV-fLuc subclone #65; test: Topoisomerase 1 inhibitor single-Toxin and two-Toxin (100 nM TPA) dose response, cap-dependent; settings: 10 nM to 10 uM
Protocol: FIG. 28A illustrates a dose response assay of the MCF7 CMV-fLuc subclone #65 treated with varying doses (10 nM to 10 uM range) of the following Topoisomerase 1 inhibitors: camptothecin, topotecan, irinotecan, and rubitecan. Following a 6 hr incubation in a single-Toxin assay, cells were lysed and fLuc protein activity measured using a standard microplate reader assay. The plate reader values were averaged and expressed as the ratio of treated to untreated samples (Fold Induction). The dashed line represents the level of translational response in untreated cell samples.
FIG. 28B illustrates the use of a Combinatorial Assay to examine the effects of Topoisomerase 1 inhibitors on cap-dependent translation. A series of dose response assays were performed on the MCF7 CMV-fLuc subclone #65 using varying doses of the Topoisomerase 1 inhibitors (10 nM to 10 uM range) in a Two-Toxin assay with a constant 100 nM TPA dose. The plate reader values were averaged and expressed as the ratio of treated to untreated samples (Fold Induction). The dashed line represents the level of translational response in untreated samples.
FIG. 28A illustrates a cap-dependent dose response assay of MCF7 cells treated with varying dosages (10 nM to 10 uM range) of the following TopoI inhibitors: camptothecin, topotecan, irinotecan, and rubitecan. […] While the altered irinotecan response might have been predicted based on its metabolic requirements, the lack of topotecan action on cap-dependent translation in the single-Toxin assays was unexpected.
Since similar doses inhibited translation in the single-Toxin assays (FIG. 28A), this effect might have represented a direct effect on translation.

[5] = system: MCF7 mTRdm-fLuc subclone #27; test: Topoisomerase 1 inhibitor single-Toxin and two-Toxin (100 nM TPA) dose response, cap-independent
Protocol: FIG. 28C illustrates the use of single-Toxin Assays to measure the effects of Topoisomerase 1 inhibitors on cap-independent translation in MCF7 cells. Triplicate samples of the MCF7 mTRdm-fLuc subclone #27 were treated with varying concentrations (10 nM to 10 uM range) of the Topoisomerase 1 inhibitors; camptothecin, rubitecan, irinotecan and topotecan. The plate reader values were averaged and expressed as the ratio of treated to untreated samples (Fold Induction). The dashed line represents the level of translational response in untreated controls.
FIG. 28D illustrates the use of a two-Toxin Combinatorial Assay on the MCF7 mTRdm-fLuc subclone #27 treated with 100 nM TPA plus varying doses (10 nM to 10 uM range) of the Topoisomerase 1 inhibitors. The plate reader values were averaged and expressed as the ratio of treated to untreated samples (Fold Induction). The dashed line represents the level of translational response in untreated samples. All four inhibitors acted synergistically with TPA to increase protein activity in the 10 nM two-Toxin assay.
FIG. 28D illustrates the use of a two-Toxin dose response assay using varying dosages of the TopoI inhibitors in combination with the 100 nM TPA translational activator. All four inhibitors acted synergistically with TPA at low doses to increase protein translation. At concentrations higher than 100 nM, camptothecin, rubitecan, and topotecan antagonized the TPA response and reduced the fLUC expression.

[6] = system: HEK293 mTRdm-fLuc subclone #13 and HEK293 hTRdm-gLuc subclone #79; test: Updated 15-Assay / 21-Assay, TR translational responses (fLuc, gLuc); settings: Updated 15-Assay, High Dose 10 uM, single- and two-Toxin
Protocol: as §1
As before, secreted Gaussia Luciferase (gLUC) activity was measured in conditioned media 6 hr after drug application and protein activity expressed as the ratio of treated to untreated samples (Fold Induction). The dashed line represents the translational response in untreated cells.
The dashed line represents the translational response produced by untreated cell samples.
Following a 6 hr culture time, secreted gLuc activity was measured in conditioned media using a standard microplate reader assay and expressed as the ratio of treated to untreated samples (Fold Induction). The dashed line represents the level of translational response in the untreated samples. Given that the gLuc protein is secreted into the media, it escapes the cytoplasmic protein turnover processes acting on the fLUC protein. Therefore, any difference in the apparent TR response is a likely result of variation in reporter protein synthesis, secretion or reduced protein turnover.
as §2, with “(Topotecan). […]” for “(Topotecan).”

In the case of CCCCCCCCCCCCCC(=O)O[C@@H]1[C@@H](C)[C@@]2(O)[C@@H](C=C(CO)C[C@]3(O)C(=O)C(C)=C[C@@H]23)[C@@H]2C(C)(C)[C@]12OC(C)=O [TPA, 12-O-tetradecanoylphorbol-13-acetate], the “TR-specific toxin response” value (HCT116 mTRdm-fLUC cells; 5-Assay, 6 hr, HCT116 mTRdm-fLUC 12-16 subclone #38) is reported as “Maximal TR-specific toxin responses”, the “increase in reporter activity (maximal TR-specific response)” value (HCT116 mTRdm-fLUC cells; 5-Assay, TPA single-Toxin 100 nM, 6 hr, HCT116 mTRdm-fLUC 12-16 subclone #30) is reported as 800-1200% and the “dose giving maximal reporter level (translational peak)” value [1] is reported as 100 nM. The “dose giving peak fLuc protein activity” value [2] was 100 nM.
For CC(C)C[C@H](NC(=O)[C@H](Cc1ccccc1)NC(=O)c1cnccn1)B(O)O [Velcade, [(1R)-3-methyl-1-[[(2S)-1-oxo-3-phenyl-2-[(pyrazinylcarbonyl)amino]propyl]amino]butyl] boronic acid], the “effect on the TPA response” value [3] was “TPA response was antagonized”.
With CNc1ccc2oc(C[C@H]3O[C@@]4(CC[C@H]3C)O[C@H]([C@H](C)C(=O)c3ccc[nH]3)[C@H](C)C[C@H]4C)nc2c1C(=O)O [calcimycin, Calcimycin] the “effect on the TPA response” value [3] was “TPA response was antagonized”.
For CCCC(=O)Nc1ncnc2c1ncn2[C@@H]1O[C@@H]2COP(=O)(O)O[C@H]2[C@H]1OC(=O)CCC [dbcAMP, Dibutyryl-cyclic AMP], the “translational response” value (HCT116 mTRdm-fLUC cells; dbcAMP single-Toxin assay, HCT116 mTRdm-fLUC transformed subclones) was “minimal translational response”.
CC[C@@]1(O)C(=O)OCc2c1cc1n(c2=O)Cc2cc3c(CN(C)C)c(O)ccc3nc2-1.Cl [topotecan, (S)-10-[(dimethylamino)methyl]-4-ethyl-4,9-dihydroxy-1H-pyrano[3′,4′:6,7]indolizino[1,2-b]quinoline-3,14(4H,12H)-dione monohydrochloride] was tested, and the “effect on cap-dependent translation” value ([4]; single-Toxin) was “neither topotecan or irinotecan significantly altered cap-dependent translation”, the “effect on TPA-specific translational response” value ([4]; two-Toxin with constant 100 nM TPA, cap-dependent) was “showed only the TPA inhibitory effect at high doses (i.e. 5 uM and 10 uM)” and the “effect on cap-independent translation” value ([5]; single-Toxin, 10 nM to 10 uM) was “exhibited reduced fLUC activity at higher doses (5 uM and 10 uM)”. For the same compound, the “effect on TPA activity” value ([5]; two-Toxin with 100 nM TPA, 10 nM to 10 uM) was “antagonized the TPA activity and exhibited reduced fLUC expression”, the “fLUC expression at the highest dose” value ([5]; two-Toxin with 100 nM TPA, highest dose) was “basal level expression” and the “effect on the TPA response” value [3] was “TPA response was antagonized”. The “effect on translation” value [6] was “inhibitory effect of Topotecan (HD) was evident in all Single- and two-Toxin assays”.
